Data from patent publication EP0582261A1, “Cephalosporin compounds and processes for the preparation thereof” (LUCKY LTD., priority 1992, dated 1994).

How the values were obtained:
Assay in all cases: MIC, two-fold dilution method on Müller-Hinton agar
Assay type in all cases: cell-based
Details in all cases: incubated at 37°C for 20 hours
[1] = test system: Citrobacter freundii ATCC 8090
Procedure: (§1) The same procedures as described in Example 163 were repeated using 7-amino-1,8-dimethyl[1,3]imidazo[1,2-c] pyrimidine-5-thione prepared in Preparation Example 36 in place of 7-amino-1-methyl[1,3]imidazo[1,2-c]pyrimidine-5-thione to yield 190mg and 180mg of the title compound(a) and (b), respectively, as white solids.
(§2) These MIC values were taken by employing a two-fold dilution method: that is, two-fold serial dilutions of each of the test compounds were made and dispersed in a Müller-Hinton agar medium; 2µl of the standard test strain which had the 10⁷ CFU(Colony Forming Unit) per ml was inoculated on the medium; and these were incubated at 37°C for 20 hours.

[2] = test system: Providencia rettgeri ATCC 9250
Procedure: as §1, §2

[3] = test system: Escherichia coli ATCC 25922
Procedure: as §1, §2

[4] = test system: Micrococcus luteus ATCC 9341
Procedure: as §1, §2

[5] = test system: Klebsiella pneumoniae ATCC 10031
Procedure: as §1, §2

[6] = test system: Morganella morganii ATCC 8076h
Procedure: as §1, §2

[7] = test system: Streptococcus faecalis ATCC 29212
Procedure: as §1, §2

[8] = test system: Escherichia coli ATCC 10536
Procedure: as §1, §2

[9] = test system: Bacillus cereus ATCC 11778
Procedure: as §1, §2

[10] = test system: Pseudomonas aeruginosa ATCC 25619
Procedure: as §1, §2

[11] = test system: Enterobacter cloacae ATCC 27508
Procedure: as §1, §2

[12] = test system: Proteus mirabilis ATCC 25933
Procedure: as §1, §2

[13] = test system: Staphylococcus aureus ATCC 6538p
Procedure: as §1, §2

[14] = test system: Salmonella typhimurium ATCC 14028
Procedure: as §1, §2

[15] = test system: Acinetobacter calcoaceticus ATCC 15473
Procedure: as §1, §2

[16] = test system: Serratia marcescens ATCC 27117
Procedure: as §1, §2

[17] = test system: Bacillus megaterium ATCC 9885
Procedure: as §1, §2

[18] = test system: Pseudomonas aeruginosa ATCC 10145
Procedure: as §1, §2

[19] = test system: Pseudomonas aeruginosa ATCC 27853
Procedure: as §1, §2

[20] = test system: Staphylococcus epidermidis ATCC 12228
Procedure: as §1, §2

[21] = test system: Enterobacter aerogenes ATCC 29751
Procedure: as §1, §2

[22] = test system: Staphylococcus aureus ATCC 10537
Procedure: as §1, §2

[23] = test system: Proteus vulgaris ATCC 6059
Procedure: as §1, §2

[24] = test system: Shigella flexneri ATCC 11836
Procedure: as §1, §2

[25] = test system: Shigella sonnei ATCC 11060
Procedure: as §1, §2

Substance | MIC values against the standard strains [1] [µg/mL] | MIC values against the standard strains [2] [µg/mL] | MIC values against the standard strains [3] [µg/mL] | MIC values against the standard strains [4] [µg/mL] | MIC values against the standard strains [5] [µg/mL] | MIC values against the standard strains [6] [µg/mL] | MIC values against the standard strains [7] [µg/mL] | MIC values against the standard strains [8] [µg/mL] | MIC values against the standard strains [9] [µg/mL] | MIC values against the standard strains [10] [µg/mL] | MIC values against the standard strains [11] [µg/mL] | MIC values against the standard strains [12] [µg/mL] | MIC values against the standard strains [13] [µg/mL] | MIC values against the standard strains [14] [µg/mL] | MIC values against the standard strains [15] [µg/mL] | MIC values against the standard strains [16] [µg/mL] | MIC values against the standard strains [17] [µg/mL] | MIC values against the standard strains [18] [µg/mL] | MIC values against the standard strains [19] [µg/mL] | MIC values against the standard strains [20] [µg/mL] | further results
7-[(Z)-2-(2-aminothiazol-4-yl)-2-(methoxy-imino)acetamido]-3-(7-amino-1-methyl[1,2,4]triazolo[1,5-c]pyrimidinium-5-yl)thiomethyl-3-cephem-4-carboxylate [Exp. 46] | 0.031 | ≤0.008 | 0.031 | 0.016 | ≤0.008 | ≤0.008 | 16 | 0.031 | 8 | 2 | ≤0.008 | 0.13 | 0.13 | 0.063 | 2 | 0.13 | 0.063 | 4 | 2 | 0.063 | MIC values against the standard strains [21]: 0.13 µg/mL; MIC values against the standard strains [22]: 0.063 µg/mL; MIC values against the standard strains [23]: 0.063 µg/mL; MIC values against the standard strains [24]: 0.016 µg/mL; MIC values against the standard strains [25]: 0.063 µg/mL
7-[(Z)-2-(2-aminothiazol-4-yl)-2-(1-carboxycyclopentoxyimino)acetamido]-3-(2,7-diamino-1-methyl [1,2,4]triazolo[1,5-c]pyrimidinium-5-yl)thiomethyl-3-cephem-4-carboxylate [Exp. 84] | 0.063 | ≤0.008 | 0.063 | 0.016 | 0.063 | ≤0.008 | 32 | 0.063 | 32 | 1 | ≤0.008 | 0.063 | 0.25 | 0.13 | 2 | 0.13 | 0.25 | 2 | 1 | 0.5 | MIC values against the standard strains [21]: 0.25 µg/mL; MIC values against the standard strains [22]: 0.25 µg/mL; MIC values against the standard strains [23]: 0.063 µg/mL; MIC values against the standard strains [24]: 0.063 µg/mL; MIC values against the standard strains [25]: 0.13 µg/mL
7-[(Z)-2-(2-aminothiazol-4-yl)-2-(2-carboxyprop-2-oxyimino)acetamido]-3-(7-amino-1-methyl [1,2,4]triazolo[1,5-c]pyrimidinium-5-yl)thiomethyl-3-cephem-4-carboxylate [Exp. 1] | 0.13 | ≤0.008 | 0.13 | 0.13 | 0.063 | ≤0.008 | >128 | 0.063 | 128 | 1 | 0.016 | 0.13 | 4 | 0.25 | 4 | 0.25 | 0.25 | 2 | 1 | 1 | MIC values against the standard strains [21]: 1 µg/mL; MIC values against the standard strains [22]: 4 µg/mL; MIC values against the standard strains [23]: 0.063 µg/mL; MIC values against the standard strains [24]: 0.031 µg/mL; MIC values against the standard strains [25]: 0.13 µg/mL
7-[(Z)-2-(2-aminothiazol-4-yl)-2-((R)-1-carboxyprop-1-oxyimino)acetamido]-3-(2,7-diamino-1-methyl[1,2,4]triazolo[1,5-c]pyrimidinium-5-yl)thiomethyl-3-cephem-4-carboxylate [Exp. 88] | 0.13 | ≤0.008 | 0.063 | ≤0.008 | ≤0.008 | ≤0.008 | 8 | 0.13 | 8 | 0.5 | ≤0.008 | 0.13 | 0.13 | 0.13 | 1 | 0.25 | 0.031 | 1 | 1 | 0.031 | MIC values against the standard strains [21]: 0.13 µg/mL; MIC values against the standard strains [22]: 0.13 µg/mL; MIC values against the standard strains [23]: 0.063 µg/mL; MIC values against the standard strains [24]: 0.031 µg/mL; MIC values against the standard strains [25]: 0.063 µg/mL
7-[(Z)-2-(5-amino-1,2,4-thiadiazol-3-yl)-2-(ethoxyimino)acetamido]-3-(7-amino-1-methyl[1,2,4] triazolo[1,5-c]pyrimidinium-5-yl)thiomethyl-3-cephem-4-carboxylate [Exp. 72] | 0.063 | ≤0.008 | 0.063 | 0.016 | 0.016 | ≤0.008 | 8 | 0.063 | 16 | 1 | ≤0.008 | 0.25 | 0.25 | 0.25 | 1 | 0.25 | 0.063 | 4 | 4 | 0.25 | MIC values against the standard strains [21]: 0.25 µg/mL; MIC values against the standard strains [22]: 0.13 µg/mL; MIC values against the standard strains [23]: 0.5 µg/mL; MIC values against the standard strains [24]: 0.031 µg/mL; MIC values against the standard strains [25]: 0.063 µg/mL
